This assay addresses T1, recombinant AKR1C3 (human aldo-keto reductase 1C3) (Homo sapiens, UniProt P42330).
T1 construct: recombinant enzyme
T1 sequence (P42330 1-323): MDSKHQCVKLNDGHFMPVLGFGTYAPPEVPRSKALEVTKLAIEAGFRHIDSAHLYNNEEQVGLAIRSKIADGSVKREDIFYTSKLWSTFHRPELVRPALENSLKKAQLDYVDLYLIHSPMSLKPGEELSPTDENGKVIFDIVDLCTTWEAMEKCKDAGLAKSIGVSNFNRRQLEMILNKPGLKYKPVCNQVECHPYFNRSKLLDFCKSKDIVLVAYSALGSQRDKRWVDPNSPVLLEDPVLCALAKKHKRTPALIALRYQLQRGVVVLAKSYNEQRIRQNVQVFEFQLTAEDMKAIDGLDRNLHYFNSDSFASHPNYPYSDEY
Kind of assay: absorbance at […] nm, Michaelis-Menten fit. It counts as biochemical. The settings on record: 0.25 mM NAD(P)H, 10 mM Tris-Cl pH 7.0, 4% DMSO.

As to `CS(=O)(=O)OCCN(CCBr)c1c(C(=O)NCCO)cc([N+](=O)[O-])cc1[N+](=O)[O-]` [PR-104A], the KM result was “kinetic parameters calculated for each (D)NBM using the following extinction coefficients: PR-104A”.
